Here are results for one compound from patent US11998616B2, “Nanoparticles for crossing the blood brain barrier and methods of treatment using the same” (California Institute of Technology, priority 2018, dated 2024).

SMILES strings stand for the structures. Entries after “also recorded” stand apart in the source; their conditions may differ.

The test system of data set [1] is human BT474-Gluc breast cancer metastatic brain tumors. The data set is described as follows: Antitumor efficacy, brain tumors established by ICD injection. The class given is in vivo, Rag2−/−; Il2rg−/− mice. As for the experimental part:
Intracardiac (ICD) Brain Metastasis Model. All animals were treated according to the NIH guidelines for animal care and use as approved by the Caltech Institutional Animal Care and Use Committee. BT474-Gluc cells, transduced with an expression cassette encoding Gluc and CFP separated by an internal ribosomal entry site using a lentiviral vector, were obtained from Dr. Jain at Harvard University. BT474-Gluc cells were maintained in RPMI 1640 supplemented with 10% (v/v) FBS in a humidified oven at 37° C. with 5% CO2. 100,000 BT474-Gluc cells were suspended in 100 μL of RPMI and slowly injected into the left ventricle of female Rag2−/−; Il2rg−/− mice. Injections were performed blind, midway between the sternal notch and top of xyphoid process, and 13% anatomical left of sternum. Successful insertion into the left cardiac ventricle was confirmed by a bright red pulse of blood in the syringe.
(§1) Tumor Size Monitoring. For ICD and IV models, formation of BT474-Gluc brain metastatic tumors was monitored by MRI every third week until macroscopic tumors were visible (˜0.2 mm^3 in volume). Tumor growth was then monitored weekly by MRI, as for the IC model. Mice were anaesthetized with 1.5-2% (v/v) isoflurane in O2 at a flow rate of 1-1.5 mL/min. […] Tumor volume was determined manually from the T2 hyperintense tumor regions of the brain using Fiji software. For the IC model, tumor size was also monitored by measuring the activity of secreted Gluc in the blood. […] Blood was transferred to an opaque 96-well plate (Nunc), and Gluc activity measured using the Pierce Gaussia Luciferase Flash Assay Kit, according to the manufacturer's protocol. Photon counts were acquired for 5 s following addition of coelenterazine using a Safire 2 multi-mode plate reader (Tecan). […]
(§2) Treatments. Treatment began when brain metastatic tumors reached ˜2 mm^3, as measured by MRI. […]
Brain Tumors Show Significant Delay in Growth with TfR-Targeted Nanoparticles, but their Response Differs when Established by Different Methods. […] After IC, ICD or IV injection of BT474-Gluc cells, formation of brain metastatic tumors was monitored by MRI. […]

Data set [2] deals with BT474-Gluc cells. The data set can be described thus: In vitro sensitivity to CPT of BT474-Gluc cells isolated from brain tumors and parental cells. In kind it is cell-based, human. The following applies: cells from IC-, ICD-, IV-established tumors and parental cells; dose-response curves.
Data set [3] has as its system human BT474-Gluc breast cancer metastatic brain tumors. The data set is described as follows: Antitumor efficacy, brain tumors established by IC injection. The class given is in vivo, Rag2−/−; Il2rg−/− mice. As for the experimental part:
(§3) For the IC model, 50,000 BT474-Gluc cells in 2 μL RPMI were intracranially injected into the right cerebral hemisphere of female Rag2−/−; Il2rg−/− mice (Jackson Laboratory) using a stereotaxic apparatus at a rate of 0.1 μL/min. The coordinates for injection were 2 mm posterior, 1.5 mm lateral to bregma, and 2.5 mm depth from bregma. For the IV model, 2 M cells were suspended in 150 μL RPMI and slowly injected into the lateral tail vein of restrained female Rag2−/−; Il2rg−/− mice.
as §1, with “mL/min. T2-weighted 3D RARE images were acquired to assess the tumor volume.” for “mL/min.”
as §2
Brain Tumors Show Significant Delay in Growth with TfR-Targeted Nanoparticles, but their Response Differs when Established by Different Methods. […] After IC, ICD or IV injection of BT474-Gluc cells, formation of brain metastatic tumors was monitored by MRI. […] Brain tumor volume was measured weekly by MRI. Blood Gluc activity was measured in addition only for the IC model, due to substantial extracranial tumor burden in the ICD and IV models.

Data set [4] shares this test system. The data set can be described thus: Antitumor efficacy, brain tumors established by IV injection. In kind it is in vivo, Rag2−/−; Il2rg−/− mice. As for the experimental part:
as §3
Tumor Size Monitoring. For ICD and IV models, formation of BT474-Gluc brain metastatic tumors was monitored by MRI every third week until macroscopic tumors were visible (˜0.2 mm^3 in volume). Tumor growth was then monitored weekly by MRI, as for the IC model. Mice were anaesthetized with 1.5-2% (v/v) isoflurane in O2 at a flow rate of 1-1.5 mL/min. T2-weighted 3D RARE images were acquired to assess the tumor volume. The image acquisition parameters were as follows: echo time: 6.1 ms; repetition time: 250 ms; rapid acquisition relaxation enhanced (RARE) factor: 4; number of averages: 4; field of view: 2.0 cm×1.2 cm×0.8 cm; matrix: 200×120×80 ([…] resolution). Tumor volume was determined manually from the T2 hyperintense tumor regions of the brain using Fiji software. For the IC model, tumor size was also monitored by measuring the activity of secreted Gluc in the blood. […] Blood was transferred to an opaque 96-well plate (Nunc), and Gluc activity measured using the Pierce Gaussia Luciferase Flash Assay Kit, according to the manufacturer's protocol. Photon counts were acquired for 5 s following addition of coelenterazine using a Safire 2 multi-mode plate reader (Tecan). […]
as §2
Development of Mouse Model that Replicates the Metastasis Process in HER2-Positive Breast Cancer Brain Metastasis Patients. […] HER2-positive BT474-Gluc cells were intravenously (IV) injected into Rag2^−/−; Il2rg^−/− mice, and formation of brain metastases was monitored by MRI. […]

A short description of data set [5]: Brain uptake of therapeutics in tumor and healthy brain tissue by HPLC. The class given is in vivo, Rag2−/−; Il2rg−/− mice. The following applies: IC-established brain tumors; 24 h after 4 mg/kg dose (CPT basis). As for the experimental part: Brain Uptake of Therapeutics Differs in Tumor, but not Healthy Tissue between Models. To ascertain whether differences in brain penetration of the therapeutics might explain the discordance in efficacy between brain metastasis models, we systemically administered an additional dose of each treatment at the end of the efficacy study. After 24 h, mice were anesthetized and perfused with PBS to clear any remaining nanoparticles or free drug from the bloodstream. Drug uptake into tumor and healthy brain tissue was quantified by HPLC as previously described.

The nature of data set [6]: Gross toxicity observation during efficacy studies. The class given is in vivo, Rag2−/−; Il2rg−/− mice. The conditions noted are these: tail vein injection once per week for 4 weeks. As for the experimental part: Treatments. Treatment began when brain metastatic tumors reached ˜2 mm^3, as measured by MRI. Mice in each model were randomized into […] of six mice per group. CPT at a dose of 4 mg/kg (in 20% DMSO, 20% PEG 400, 30% ethanol, and 30% 10 mM pH 3.5 phosphoric acid), Herceptin at 24 mg/kg (in PBS, pH 7.4), TfR-targeted CPT nanoparticles at 4 mg/kg (CPT basis, in PBS, pH 7.4), TfR-targeted Herceptin nanoparticles at 24 mg/kg (Herceptin basis, in PBS, pH 7.4), and TfR-targeted combination CPT/Herceptin nanoparticles at 4 and 24 mg/kg (CPT and Herceptin bases, respectively, in PBS, pH 7.4) were freshly prepared. The different formulations were systemically administered by lateral tail vein injection once per week for 4 weeks. Injections were standardized to 150 μL per 20 g body weight. The control treatment was 0.9% (w/v) saline.

[7] abbreviates: 4 mg/kg (CPT basis) weekly x4, end of the study.

Take `CC[C@@]1(O)C(=O)OCc2c1cc1n(c2=O)Cc2cc3ccccc3nc2-1` [CPT, camptothecin]: the Mean tumor volume in data set [1] (setting [7]) is on record as 69 mm^3; in data set [3] (4 mg/kg (CPT basis) tail vein once per week for 4 weeks, end of the study), 39 mm^3; in data set [4] (setting [7]), 86 mm^3. Also, the Median tumor volume in data set [1] (setting [7]) is 71 mm^3; in data set [3] (setting [7]) it was 39 mm^3; in data set [4] (setting [7]), 86 mm^3. In addition, the “tumor growth response” value in data set [1] (compared to saline) is given as “modest response”. Further, the “sensitivity of cells to CPT in vitro” value in data set [2] is “comparable sensitivities to CPT; also recorded: similarly sensitive to CPT”. The “decrease in mean tumor volume compared to saline” value in data set [3] (end of the study) stood at 2.6 fold. In addition, the “tumor growth inhibition” value in data set [4] (compared to saline) is listed as “no tumor growth inhibition”. Moreover, in data set [5], the “accumulation in tumor tissue” value is given as “significant accumulation”. Further, the “gross signs of toxicity” value in data set [6] is on record as “animals did have reactions to dosing”.
